Experimental data as given in BindingDB's records for PubMed 7616392 (Sanofi Recherche, 1995).

Molecular target: T1, Neuromedin-K receptor (Homo sapiens, UniProt P29371)
T1 sequence (P29371 whole entry): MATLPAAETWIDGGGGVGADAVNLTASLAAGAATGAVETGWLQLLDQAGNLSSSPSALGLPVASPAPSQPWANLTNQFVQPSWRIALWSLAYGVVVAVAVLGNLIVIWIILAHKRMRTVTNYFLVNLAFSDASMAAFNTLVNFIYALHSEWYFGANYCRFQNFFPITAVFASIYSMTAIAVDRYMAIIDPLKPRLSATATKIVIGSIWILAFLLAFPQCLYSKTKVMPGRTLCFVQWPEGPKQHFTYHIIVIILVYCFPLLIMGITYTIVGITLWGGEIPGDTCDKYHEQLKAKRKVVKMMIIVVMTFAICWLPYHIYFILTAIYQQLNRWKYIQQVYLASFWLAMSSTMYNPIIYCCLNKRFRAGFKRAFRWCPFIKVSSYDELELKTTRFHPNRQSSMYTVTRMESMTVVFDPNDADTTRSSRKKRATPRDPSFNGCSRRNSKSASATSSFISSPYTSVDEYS

SMILES | Ki [nM]
CC(=O)NC1(c2ccccc2)CCN(CCC(CN(C)C(=O)c2ccccc2)c2ccc(Cl)c(Cl)c2)CC1 (configuration not stated) [SR 48968] | 368
CC(C)Oc1cccc(CC(=O)N2CCC[C@](CC[N+]34CCC(c5ccccc5)(CC3)CC4)(c3ccc(Cl)c(Cl)c3)C2)c1 | 1080
